The text below walks through data of patent US8283481B2, “Inhibitors of a 9-cis epoxycarotenoid dioxygenase” (National Research Council of Canada, priority 2008, dated 2012).

Entries after “also recorded” stand apart in the source; their conditions may differ.

In assay [1] the target is T1, recombinant AtNCED3 (Arabidopsis thaliana, UniProt Q9LRR7).
T1 construct: glutathione-S-transferase (GST) (C); made in house; host or cells: E. coli BL21(DE3), pRL296 vector
Description: Recombinant AtNCED3 in vitro enzyme assay (HPLC, cleavage of 9-cis-neoxanthin). It is filed as biochemical. The note with it: for relative inhibition of AtNCED3 activity (in words): in vitro enzyme assay, 1 mM concentration (FIG. 5); for Ki: Dixon plot, competitive inhibition, 0-250 μM inhibitor, 9-cis-neoxanthin at 50 (55), 30 and 10 μM. The text has this: Fresh spinach was macerated under liquid nitrogen and extracted five times with three volumes of methanol/0.1% KOH. Samples were dried using a roto-evaporator, resuspended in acetone and then chilled on ice for one hour. The solvent was subsequently transferred to a new flask, roto-evaporated and resuspended in acetonitrile/acetone (1:1) mixture. The mixture was applied to a gravity flow column containing C-18 silica gel (Sigma) equilibrated in 65% acetonitrile/35% water (solvent C). The column was washed with 49% acetone (solvent D)/51% solvent A and 20 mL of 55% solvent D/45% solvent A while collecting 5 mL fractions. Fractions containing neoxanthin were pooled, dried, and resuspended in 100 μL of methanol. The pooled mixture was separated using an Agilent 1100 series HPLC and a Supelcosil™ LC-18 (25 cm×10 mm, 5 m) (Supelco) column equilibrated with solvent A. The HPLC method consisted of a linear gradient over 30 minutes from 100% solvent A to 100% solvent D with a flow rate of 4 mL/minute at 22° C. and monitored with a PDA detector at 436 nm. The neoxanthin fractions were collected, dried and resuspended in ethanol. Neoxanthin was quantified by determining its OD439 using a PerkinElmer Lambda 35 UV/VIS Spectrometer and applying its extinction coefficient of 2243 (A^1%1cm).^30
AtNCED3 was over-expressed using the pRL296 expression vector (a gift from M. Cygler, BRI, Montreal) in E. coli (BL21)DE3 cells as a glutathione-S-transferase fusion protein and affinity purified using glutathione sepharose 4 fast flow resin (GE Healthcare) as described previously.^35 Essentially, cells were grown to an OD600 of 0.45 at 37° C. and 200 rpm shaking. The culture was induced with 1 mM isopropyl-β-d-thiogalactoside for 16 h at 15° C. and 200 rpm shaking. The cells were pelleted and resuspended in 50 mM Tris-HCl (pH 8.0) 1 mM DTT and 0.5% protease inhibitor cocktail set III (CalBiochem). Cells were lysed using a french press at 20,000 psi and affinity purified as per manufacturer's instructions (GE Healthcare). Protein concentration was determined by the method of Bradford.^36
Enzymatic assays contained 100 mM Bis-Tris (pH 6.7), […], 10 mM ascorbate, 0.05% Triton™ X-100, catalase (1 mg/mL), neoxanthin and inhibitor to a total volume of 5 L of ethanol and 8 g AtNCED3 to a total assay volume of 100 L. Assays were incubated at 22° C. for 20 min. The assays were stopped with the addition of 50 L of 25% Triton™ X-100 and extracted with 150 L of ethyl acetate. All procedures were performed under red-light to minimize photo-induced damage to assay components and products.^6 Fine chemicals and solvents were purchased from Sigma-Aldrich. 75 μL of the assay extract was injected into an Agilent 1100 series HPLC machine equipped with a Supelcosil™ LC-18 (3.3 cm×4.6 mm, 3 m) (Supelco) column pre-equilibrated with 15% acetonitrile (solvent B)/85% water (solvent A). Solvent B increased to 35% over ten minutes, followed by a linear gradient of 65% solvent B to 100% solvent D over 10 minutes. Solvent D was maintained at 100% for 2 minutes and then the column was returned to 15% solvent B for 5 min. The flow rate was maintained at 1.5 mL/min. and monitored with a photodiode array (PDA) detector at 436 and 262 nm.
Evaluation of recombinant AtNCED3 kinetic parameters for Km was accomplished using Michaelis-Menten equation plotted with EnzFitter™ v2.0.18.0 (Biosoft). The Ki for inhibitors was determined using a Dixon plot and concentration ranges of 250, 200, 150, 100, 50 and 0 μM inhibitor in the presence of either 55, 30 or 10 μM 9-cis-neoxanthin 2.^5

Assay [2] deals with Arabidopsis thaliana Col-0 seeds. Description: Seed germination assay. It counts as in vivo. Here is the method:
Arabidopsis thaliana Col-0 seeds were sterilized by washing them with 10% sodium hypochlorite and 20% sodium dodecyl sulfate (Sigma) for five minutes and then rinsing four times with sterile water. Seeds were moist chilled for 4 days and then plated on germination medium (0.41% MS salts, 1% sucrose, 0.05% MES and 0.1% Gamborg's vitamins, pH 5.7, 0.7% agar) (Sigma) containing either 0.1, 0.33, 1.0 or 3.33 μM of inhibitor or (+)-ABA 1. As a control, seeds were sewn and germinated on media only without inhibitors or (+)-ABA 1. Germination was recorded over seven days and indexes calculated as described previously.^40

For assay [3], the system named is ABA metabolite accumulation. The note with it: background, references 17, 18; cited from earlier work.
The test system of assay [4] is ABA and catabolites in Arabidopsis thaliana Col-0 plants. Description: Total ABA metabolite levels in mannitol stressed plants treated with SLCCD inhibitors. It is filed as in vivo. To be noted: 33 μM inhibitor, mannitol stress, first 6 hours. On the procedure:
For each condition to be tested, three hundred wild-type Arabidopsis thaliana Col-0 seeds (LEHLE) were sterilized, vernalized and sewn onto 200 mL of Sunshine Mix #3 (Sun Gro) potting material in an 8×8×4 cm pot. Plants were watered continuously with 25 g/100 mL of 20-20-20 (PlantProd™) fertilizer and grown at 22° C. with a 16 hour photoperiod for 22 days. Plants were pre-treated with 50 mL/pot of Buffer A (10 mM HEPES pH 6.5) (Sigma)+/−10 or 33 μM test compound for 2 hours. Plants were then soaked with 50 mL/pot of Buffer A containing 0.4 M mannitol (Sigma)+/−10 or 33 μM test compound. Non-treated/non-stressed control plants were simply soaked in Buffer A at the designated time points. […] Half of the tissue samples were lyophilized for metabolite profiling and the other half taken for quantitative reverse-transcription polymerase chain reaction (qRT-PCR) analysis.
Freeze-dried tissue was homogenized using a multi-tube ball mill (Mini-BeadBeater-96™, Biospec Products Inc., Bartlesville, Okla., USA) and 50 mg of each sample was weighed out into individual Falcon tubes. To each sample, 100 μL of a cocktail of internal standards comprised of (−)-5,8′,8′,8′-d4-ABA, (−)-7′,7′,7′-d3-PA, (−)-5,8′,8′,8′-d4-7′OH ABA, (−)-7′,7′,7′-d3-DPA and (+)-4,5,8′,8′,8′-d5-ABAGE, each at a concentration of 0.2 ng/μL and dissolved in a mixture of water:acetonitrile (1:1, v/v) with 0.5% glacial acetic acid, was added. Further, 3 mL of isopropanol:water:glacial acetic acid (80:19:1, v/v/v) extraction solvent was added, and samples were placed in the fridge (4° C., in the dark) on an orbital shaker at about 350 rpm. After 18-24 hours, the samples were centrifuged at 4.4 krpm for 10 min, the supernatant was transferred to a disposable culture tube, and a second portion of 500 μL extraction solvent mixture was added to wash the pellet. After vortexing and centrifuging again at 4.4 krpm for 10 min, each wash was combined with its appropriate supernatant. The organic extract was dried under reduced pressure, then re-dissolved in 100 μL methanol:glacial acetic acid (99:1, v/v) followed by 900 μL of aqueous 1% glacial acetic acid. This mixture was extracted with 2 mL hexane, and then the aqueous layer was dried down under reduced pressure. The sample was further reconstituted in 2 mL aqueous 1% glacial acetic acid and loaded onto an Oasis MCX SPE cartridge (3 cc, Waters Corporation, Mississauga, Ontario, Canada). After a wash with 3 mL aqueous 1% glacial acetic acid, samples were eluted with 1 mL methanol:glacial acetic acid (99:1, v/v) and then dried down under reduced pressure. The extract was re-dissolved in 100 μL methanol:glacial acetic acid (99:1, v/v) followed by 900 μL of aqueous 1% glacial acetic acid. This mixture was further cleaned on an Oasis HLB SPE cartridge (1 cc, Waters Corporation, Mississauga, Ontario, Canada). After a wash with 1 mL aqueous 1% glacial acetic acid, the fraction containing ABA and ABA metabolites was eluted with 1 mL acetonitrile:water:glacial acetic acid (30:69:1, v/v/v) and then was evaporated to dryness. The final residue was dissolved in 200 μL of acetonitrile:water (15:85, v/v) containing 0.1% glacial acetic acid and 100 pg/μL (±)-3′,5′,5′,7′,7′,7′-d6-ABA as a recovery standard. Finally, the sample was subjected to LC-ES-MS/MS analysis and quantification, as described in Owen and Abrams, 2008.^39

The target of assay [5] is cowpea NCED enzyme. To be noted: background, references 17, 18; read-out: Ki, competitive inhibition of cowpea NCED enzyme; cited from earlier work.

T1 sequence (Q9LRR7 41-599): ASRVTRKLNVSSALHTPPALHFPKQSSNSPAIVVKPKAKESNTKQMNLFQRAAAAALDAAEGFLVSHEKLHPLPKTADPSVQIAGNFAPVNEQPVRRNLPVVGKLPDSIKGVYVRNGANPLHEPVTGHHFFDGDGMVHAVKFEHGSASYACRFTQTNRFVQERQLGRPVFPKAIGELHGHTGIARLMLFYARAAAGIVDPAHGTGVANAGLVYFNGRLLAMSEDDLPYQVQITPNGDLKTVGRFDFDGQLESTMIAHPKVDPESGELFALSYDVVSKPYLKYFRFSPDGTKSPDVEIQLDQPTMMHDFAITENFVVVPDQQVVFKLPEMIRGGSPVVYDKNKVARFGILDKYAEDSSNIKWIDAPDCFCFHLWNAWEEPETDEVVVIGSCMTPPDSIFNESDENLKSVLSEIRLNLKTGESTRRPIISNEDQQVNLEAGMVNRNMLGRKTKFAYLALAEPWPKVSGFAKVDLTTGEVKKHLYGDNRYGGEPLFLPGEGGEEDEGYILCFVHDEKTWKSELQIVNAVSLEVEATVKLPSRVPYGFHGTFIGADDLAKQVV

On to `CC(=C/C=C/C(C)=C/C=C/C=C(C)/C=C/C=C(\C)C=C=C1C(C)(C)C[C@H](O)C[C@@]1(C)O)/C=C/[C@@]12O[C@]1(C)C[C@@H](O)CC2(C)C` (relative stereo) [compound 2, 9-cis-Neoxanthin, reference compound], for which the Km (usually the substrate concentration at which the rate is half of its maximum) in assay [1] (cleavage of 9-cis-neoxanthin 2 by recombinant AtNCED3, Michaelis-Menten plot) is 24 µM.
Turning to `CC1=CC(=O)CC(C)(C)C1(O)/C=C/C(C)=C\C(=O)O` (single isomer, unassigned; (+)) [(+)-ABA 1, Abscisic acid, reference compound], the “reduction of seed germination” value in assay [2] (0.33 μM in germination medium) was determined as 47%; in assay [2] (1 μM in germination medium) it was 61%; in assay [2] (highest concentration tested (3.33 μM)), 96%.
For `CCSC/C=C(/C)C#C[C@]1(O)[C@H](C)CC(=O)CC1(C)C` [Compound 11, (4S,5R)-(3′Z)-4-(5′-(Ethylthio)-3′-methylpent-3′-en-1′-ynyl)-4-hydroxy-3,3,5-trimethylcyclohexanone], the “relative inhibition of AtNCED3 activity (in words)” value in assay [1] is recorded as “reduced activity”.
Same read-out and setting: next, `CCSC/C=C(/C)C#C[C@@]1(O)[C@@H](C)CC(=O)CC1(C)C` [Compound 12, (4R,5S)-(3′Z)-4-(5′-(Ethylthio)-3′-methylpent-3′-en-1′-ynyl)-4-hydroxy-3,3,5-trimethylcyclohexanone]: “completely inhibited; also recorded: inhibited the enzyme as strongly as the more xanthoxin-like compounds”; `CCSC/C=C(/C)C#C[C@]1(O)[C@H](C)C[C@@H](O)CC1(C)C` [Compound 14, (1S,4R,6R)-(3′Z)-1-(5′-(Ethylthio)-3′-methylpent-3′-en-1′-ynyl)-2,2,6-trimethylcyclohexane-1,4-diol]: “did not afford greater activity”.
Consider `CCSC/C=C(/C)C#C[C@@]1(O)[C@H](C)C[C@@H](O)CC1(C)C` [Compound 15, (1R,4R,6R)-(3′Z)-1-(5′-(Ethylthio)-3′-methylpent-3′-en-1′-ynyl)-2,2,6-trimethylcyclohexane-1,4-diol], for which, in assay [1], the “relative inhibition of AtNCED3 activity (in words)” value is “did not afford greater activity”.
`COC(=O)CN(C/C=C/c1ccc(OC)c(OC)c1)Cc1ccc(F)cc1` [compound 9, Abamine, reference compound]: the “reduction of ABA metabolite accumulation” value in assay [3] was 35%. Moreover, in assay [4], the “levels of ABA and catabolites at first time point (in words)” value is “higher levels of ABA and catabolites at the first time point”. Moreover, the Ki (usually a measure of affinity in units of concentration, obtained from inhibition or displacement) in assay [5] was 18.5 µM; in assay [1] it was 132 µM.
Take Abamine SG [compound 10]: the “reduction of ABA metabolite accumulation” value in assay [3] is given as 77%. Further, the Ki was 38.8 µM in assay [5] and 86 µM in assay [1].
